Measurements published in PubChem BioAssay (NCI).
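Here, GI50 denotes the concentration required for 50% inhibition of growth. The concentration for full growth arrest is given as TGI.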

Tests used:
Assay in all cases: NCI-60 cell line screen, 384-well format
[1] = tested on: 786-0 renal
[2] = tested on: A498 renal
[3] = tested on: A549 NSCLC
[4] = tested on: ACHN renal
[5] = tested on: BT-549 breast
[6] = tested on: CAKI-1 renal
[7] = tested on: CCRF-CEM leukemia
[8] = tested on: COLO 205 colon
[9] = tested on: DU-145 prostate
[10] = tested on: EKVX NSCLC
[11] = tested on: HCC-2998 colon
[12] = tested on: HCT-15 colon
[13] = tested on: HL-60(TB) leukemia
[14] = tested on: HOP-62 NSCLC
[15] = tested on: HOP-92 NSCLC
[16] = tested on: HS 578T breast
[17] = tested on: HT29 colon
[18] = tested on: IGROV1 ovarian
[19] = tested on: K-562 leukemia
[20] = tested on: KM12 colon
[21] = tested on: LOX IMVI melanoma
[22] = tested on: M14 melanoma
[23] = tested on: MALME-3M melanoma
[24] = tested on: MCF7 breast
[25] = tested on: MDA-MB-231 breast
[26] = tested on: MDA-MB-435 melanoma
[27] = tested on: MDA-MB-468 breast
[28] = tested on: MOLT-4 leukemia
[29] = tested on: NCI-H226 lung
[30] = tested on: NCI-H23 lung
[31] = tested on: NCI-H322M lung
[32] = tested on: NCI-H460 NSCLC
[33] = tested on: NCI-H522 lung
[34] = tested on: NCI/ADR-RES ovarian
[35] = tested on: OVCAR-3 ovarian
[36] = tested on: OVCAR-4 ovarian
[37] = tested on: OVCAR-5 ovarian
[38] = tested on: OVCAR-8 ovarian
[39] = tested on: PC-3 prostate
[40] = tested on: RPMI-8226 leukemia
[41] = tested on: RXF 393 renal
[42] = tested on: SF-268 CNS
[43] = tested on: SF-295 CNS
[44] = tested on: SF-539 CNS
[45] = tested on: SK-MEL-28 melanoma
[46] = tested on: SK-MEL-5 melanoma
[47] = tested on: SK-OV-3 ovarian
[48] = tested on: SN12C renal
[49] = tested on: SNB-19 CNS
[50] = tested on: SNB-75 CNS
[51] = tested on: SR leukemia
[52] = tested on: SW-620 colon
[53] = tested on: T-47D breast
[54] = tested on: TK-10 renal
[55] = tested on: U251 glioblastoma
[56] = tested on: UACC-257 melanoma
[57] = tested on: UACC-62 melanoma
[58] = tested on: UO-31 renal

`COCCn1c2c([n+](Cc3cnccn3)c1C)C(=O)c1ccccc1C2=O` was tested, and the GI50 [1] was under 10 nM, the TGI [1] was 13 nM and the GI50 [2] was 159 nM. It also gave a TGI [2] of 1230 nM, a GI50 [3] of under 10 nM and a TGI [3] of 12.9 nM. For the same molecule, the GI50 [4] was 17.6 nM, the TGI [4] was 45.7 nM and the GI50 [5] was under 10 nM. It also gave a TGI [5] of under 10 nM, a GI50 [6] of under 10 nM and a TGI [6] of under 10 nM. The GI50 [7] was under 10 nM, the TGI [7] was 16.5 nM and the GI50 [8] was under 10 nM. For the same molecule, the TGI [8] was 11 nM, the GI50 [9] was under 10 nM and the TGI [9] was under 10 nM. The GI50 [10] was under 10 nM, the TGI [10] was under 10 nM and the GI50 [11] was under 10 nM. It also gave a TGI [11] of 14.3 nM, a GI50 [12] of 40.3 nM and a TGI [12] of 735 nM. For the same molecule, the GI50 [13] was under 10 nM, the TGI [13] was under 10 nM and the GI50 [14] was under 10 nM. It also gave a TGI [14] of 15.2 nM, a GI50 [15] of under 10 nM and a TGI [15] of under 10 nM. It also gave a GI50 [16] of 19.8 nM, a TGI [16] of 125 nM and a GI50 [17] of 18 nM. For the same molecule, the TGI [17] was 55.4 nM, the GI50 [18] was under 10 nM and the TGI [18] was under 10 nM. For the same molecule, the GI50 [19] was under 10 nM, the TGI [19] was under 10 nM and the GI50 [20] was 26 nM. For the same molecule, the TGI [20] was 114 nM, the GI50 [21] was under 10 nM and the TGI [21] was under 10 nM. The GI50 [22] was under 10 nM, the TGI [22] was 12 nM and the GI50 [23] was 16.1 nM. For the same molecule, the TGI [23] was 37.9 nM, the GI50 [24] was under 10 nM and the TGI [24] was under 10 nM. The GI50 [25] was under 10 nM, the TGI [25] was under 10 nM and the GI50 [26] was under 10 nM. The TGI [26] was under 10 nM, the GI50 [27] was under 10 nM and the TGI [27] was under 10 nM. The GI50 [28] was under 10 nM, the TGI [28] was under 10 nM and the GI50 [29] was 11.4 nM. It also gave a TGI [29] of 40.4 nM, a GI50 [30] of under 10 nM and a TGI [30] of under 10 nM. It also gave a GI50 [31] of under 10 nM, a TGI [31] of 25.9 nM and a GI50 [32] of under 10 nM. It also gave a TGI [32] of 12.2 nM, a GI50 [33] of under 10 nM and a TGI [33] of under 10 nM. The GI50 [34] was 18800 nM, the TGI [34] was over 100000 nM and the GI50 [35] was under 10 nM. It also gave a TGI [35] of under 10 nM, a GI50 [36] of under 10 nM and a TGI [36] of under 10 nM. For the same molecule, the GI50 [37] was under 10 nM, the TGI [37] was 16.5 nM and the GI50 [38] was under 10 nM. The TGI [38] was under 10 nM, the GI50 [39] was under 10 nM and the TGI [39] was under 10 nM. It also gave a GI50 [40] of under 10 nM, a TGI [40] of under 10 nM and a GI50 [41] of under 10 nM. For the same molecule, the TGI [41] was 12.1 nM, the GI50 [42] was under 10 nM and the TGI [42] was under 10 nM. The GI50 [43] was 10.4 nM, the TGI [43] was 22.5 nM and the GI50 [44] was under 10 nM. It also gave a TGI [44] of under 10 nM, a GI50 [45] of under 10 nM and a TGI [45] of under 10 nM. For the same molecule, the GI50 [46] was under 10 nM, the TGI [46] was under 10 nM and the GI50 [47] was under 10 nM. The TGI [47] was under 10 nM, the GI50 [48] was under 10 nM and the TGI [48] was under 10 nM. It also gave a GI50 [49] of under 10 nM, a TGI [49] of under 10 nM and a GI50 [50] of under 10 nM. The TGI [50] was under 10 nM, the GI50 [51] was under 10 nM and the TGI [51] was under 10 nM. For the same molecule, the GI50 [52] was under 10 nM, the TGI [52] was 10.3 nM and the GI50 [53] was under 10 nM. The TGI [53] was under 10 nM, the GI50 [54] was under 10 nM and the TGI [54] was 24 nM. It also gave a GI50 [55] of under 10 nM, a TGI [55] of under 10 nM and a GI50 [56] of under 10 nM. For the same molecule, the TGI [56] was under 10 nM, the GI50 [57] was under 10 nM and the TGI [57] was under 10 nM. The GI50 [58] was 377 nM and the TGI [58] was 7730 nM.
